Publication PMC4687871, “Delphinidin Inhibits Tumor Growth by Acting on VEGF Signalling in Endothelial Cells” (PLoS ONE, 2015)
Several values for one entry are separate records, joined by “and”; a condition that tells them apart may be missing. Identical values can stand only once.

How the values were obtained:
[1] = tested on: B16-F10 melanoma cell xenograft; experiment: Tumor growth induced by B16-F10 melanoma cell xenograft in mice; type: in vivo, mouse; conditions: 10 mg/kg i.p. once a week for 3 weeks; 30th day; vs vehicle-treated mice
Description: (§1) Two groups of 7 male C57BL/6N mice were used at 6 weeks old for tumor induction. The experimental protocol is illustrated on in Fig 1A. Before any treatments, mouse weights were registered on day 1 (D1). On the following day (D2), all mice were subcutaneously injected on the ventral side near each hindleg with B16-F10 melanoma cells (25x10^4 cells in 100 μl of 0.9% NaCl). The seventh day after tumor cell inoculation (D9), mice were treated by i.p. injection (100 μl/10 g mice) with either drug solvent (1% ethanol) or 10 mg delphinidin/kg. Delphinidin as well as solvent injections were repeated twice at 7-day intervals (D16 and D23). Then, seven days later (D30) after pentobarbital anesthesia, mice were sacrificed by cervical dislocation and tumors were dissected and weighted.

[2] = Mouse weight during xenograft experiment; type: in vivo; conditions: 10 mg/kg i.p. once a week for 3 weeks; over 30 days; vs non-treated mice
Description: as §1

B16-F10 melanoma cells = experiment: Melanoma cell proliferation (CyQUANT); type: cell-based, mouse; conditions: 24, 48 and 72 h
Description: B16-F10 (5,000 cells per well) were seeded on 96-multiwell plates in completed medium and allowed to attach overnight. […] Proliferation was determined at 24 h, 48 h and 72 h by a fluorimetric assay using the CyQUANT Cell Proliferation Assay Kit (Molecular Probes, Eugene, OR). After growth medium removal, dye-binding solution was added into each microplate well and cells were incubated at 37°C for 45 minutes. The fluorescence levels were read on a fluorescent microplate reader (Synergy HT, Biotek, Winooski, VT) with filters for 485 nm excitation and 530 nm emission.

HUVECs = experiment: Endothelial cell proliferation (CellTiter 96 AQueous One); type: cell-based, human; conditions: for change of VEGF-induced proliferation: delphinidin 10 μg/ml + VEGF 10 ng/ml; for change of rate of basal proliferation: delphinidin 10 μg/ml, 1% human serum
Description: HUVECs (12,000 cells per well) were seeded on 24-multiwell plates, or in the case of VEGFR2 studies HUVECs (10000 cells per well) were seeded on 96-multiwell plates, in high serum culture medium and allowed to attach for 4–5 h. The 20% serum medium was then replaced by 1% HS medium. After 24 h incubation, medium was removed and replaced with 500 μl /well or 280 μl/well (for VEGFR2 studies) of 1% HS medium containing tested substances. Cells were pre-treated with or without a MEK1/2 MAP kinase inhibitor (U-0126, 10 μM) or a PI3 kinase inhibitor (LY-294002, 10 μM), then treated with or without 10 ng/ml of VEGF, in presence or in absence of 10 μg/ml delphinidin. Cells were allowed to proliferate for 3 days and HUVEC proliferation was determined at 24 h, 48 h, and 72 h by a colorimetric assay using the ‘CellTiter 96 AQeous One Solution Cell Proliferation Assay’ from Promega.
Cells were pre-treated with or without a VEGFR2 specific inhibitor (Ki8751, 10 nM), then treated with or without 10 ng /ml in presence or absence of 10 μg/ml delphinidin. Cells were allowed to proliferate for 2 days and HUVECs proliferation was determined at 24 h and 48 h by a colorimetric assay using the ‘CellTiter 96 AQeous One Solution Cell proliferation Assay’ from Promega.

VEGFR2 [3] = experiment: VEGFR2 expression and phosphorylation in HUVECs (Western blot); type: cell-based, human
Description: (§2) HUVECs and B16-F10 cells were treated with delphinidin (10 μg/ml) for 3 h and then incubated without or with VEGF (10 ng/ml) for 30 min for VEGFR2 phosphorylation or 24 h for VEGFR2 expression. Then, the cells were […], washed twice with PBS and trypsinized. The cells were lysed with RIPA buffer freshly in presence of protease inhibitor. Cells were allowed to lyse for 45 min on ice and centrifuged at 15000 g for 15 min at 4°C. The supernatant was […], and protein concentrations in the supernatant were determined by protein assay.
(§3) The proteins (30 μg) were separated on 10% sodium dodecyl sulfate-polyacrylamide gel electrophoresis (SDS-PAGE) and transferred on the nitrocellulose membranes. The membranes were incubated with anti-VEGFR2 or anti-pVEGFR2. The anti-β-actin (Sigma-Aldrich) was used to visualize protein gel loading. The membranes were then incubated with appropriate HRP-conjugated secondary antibody. The protein-antibody complexes were detected by chemiluminescence using the Western Blotting Luminol reagent kit (Santa Cruz Biotechnology®).

VEGFR2 [4] = experiment: VEGFR2 expression and phosphorylation in B16-F10 cells (Western blot); type: cell-based, mouse
Description: as §2, §3

p38 MAP kinase = p38 MAP kinase activation in HUVECs (Western blot); type: cell-based, human; conditions: delphinidin 10 μg/ml; 30 min
Description: (§4) HUVECs (9,000 cells per dish of 3.5 cm diameter) were seeded on petri dishes in high serum culture medium and allowed to attach for 4–5 h. The 20% serum medium was then replaced by 1% HS medium. […] Appropriate quantities of extracted proteins were resolved in a SDS-10% polyacrylamide gel and electro transferred onto PVDF membranes, as described previously. […] Immobilized antigens were detected by chemiluminescence using HRP-conjugates as secondary antibodies (1/60,000), an ECL assay kit and autoradiography films. Autoradiography signals were captured on a GeneGenius Bio Imaging System (Syngene) using the GeneSnap software and analyzed using the GeneTools software. […] Immobilized antigens were detected as described above.

CREB = CREB phosphorylation in HUVECs (Western blot); type: cell-based, human; conditions: 30 min
Description: as §4

ATF1 = ATF1 phosphorylation in HUVECs (Western blot); type: cell-based, human; conditions: delphinidin 10 μg/ml, 30 min
Description: as §4

PDE1 = experiment: Purified PDE radio-enzymatic assay, PDE1; type: biochemical, bovine; conditions: substrate 1 μM cGMP, preliminarily reported in ref 26
Description: (§5) PDE1, PDE3, PDE4 and PDE5 were isolated by anion-exchange chromatography from bovine aortic smooth muscle cytosolic fraction as previously described. PDE2 was isolated from human platelets. Purified PDEs were stored as aliquots at -80°C until use. PDE activity was determined by a radio-enzymatic assay as described previously. The concentration of delphinidin that produced 50% inhibition (IC50) of substrate hydrolysis (determined at 1μM cAMP or cGMP) was calculated by non-linear regression analysis (GraphPad Prism, San Diego, CA) of concentration-response curves performed with 1–300 μM of delphinidin and included 6 different concentrations of delphinidin.

PDE2 = molecular target: T1, PDE2 (Homo sapiens, UniProt O00408); experiment: Purified PDE radio-enzymatic assay, PDE2; type: biochemical; conditions: substrate 1 μM cAMP, preliminarily reported in ref 26
T1 construct: PDE2 was isolated from human platelets; from tissue; host or cells: human platelets
Description: as §5

PDE4 = experiment: Purified PDE radio-enzymatic assay, PDE4; type: biochemical, bovine; conditions: substrate 1 μM cAMP; preliminarily reported in ref 26
Description: as §5

PDE5 = molecular target: T2, PDE5 (Bos taurus, UniProt Q28156); experiment: Purified PDE radio-enzymatic assay, PDE5; type: biochemical, bovine; conditions: substrate 1 μM cGMP; preliminarily reported in ref 26
T2 construct: isolated by anion-exchange chromatography from bovine aortic smooth muscle cytosolic fraction; from tissue; host or cells: bovine aortic smooth muscle, cytosolic fraction
Description: as §5

human NSCLC cells = tested on: human NSCLC cells; parameters: method as in PMID 24124611; conditions: athymic nude mice subcutaneously implanted with human NSCLC cells; vs control mice; cited from earlier work

T1 sequence (O00408 whole entry): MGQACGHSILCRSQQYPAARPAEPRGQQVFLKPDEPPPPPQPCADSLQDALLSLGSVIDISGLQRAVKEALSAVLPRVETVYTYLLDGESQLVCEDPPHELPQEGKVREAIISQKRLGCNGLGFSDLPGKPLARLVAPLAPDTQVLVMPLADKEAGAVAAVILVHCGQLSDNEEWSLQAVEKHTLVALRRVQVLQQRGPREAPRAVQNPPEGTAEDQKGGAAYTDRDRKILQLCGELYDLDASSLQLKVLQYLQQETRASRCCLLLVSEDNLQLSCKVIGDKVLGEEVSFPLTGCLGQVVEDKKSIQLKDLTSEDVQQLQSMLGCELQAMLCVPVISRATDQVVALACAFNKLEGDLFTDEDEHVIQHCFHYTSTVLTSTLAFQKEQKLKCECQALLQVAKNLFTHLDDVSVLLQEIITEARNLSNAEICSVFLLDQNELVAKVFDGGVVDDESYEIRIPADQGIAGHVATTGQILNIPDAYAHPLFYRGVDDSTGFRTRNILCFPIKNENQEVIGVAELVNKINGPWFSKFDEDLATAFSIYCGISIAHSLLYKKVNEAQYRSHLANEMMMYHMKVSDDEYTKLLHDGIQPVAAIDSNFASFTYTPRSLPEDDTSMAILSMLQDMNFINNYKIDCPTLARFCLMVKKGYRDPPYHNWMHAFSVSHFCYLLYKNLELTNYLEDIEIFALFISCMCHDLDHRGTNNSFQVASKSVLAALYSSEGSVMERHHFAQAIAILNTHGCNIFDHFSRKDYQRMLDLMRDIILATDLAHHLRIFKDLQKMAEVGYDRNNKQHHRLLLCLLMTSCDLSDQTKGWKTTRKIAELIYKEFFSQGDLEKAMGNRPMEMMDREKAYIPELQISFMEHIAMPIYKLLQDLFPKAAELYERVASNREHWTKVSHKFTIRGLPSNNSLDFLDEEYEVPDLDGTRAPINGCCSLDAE

## Oc1cc(O)c2cc(O)c(-c3cc(O)c(O)c(O)c3)[o+]c2c1 [delphinidin, Delphinidin]
[1]
  decrease of tumor weight: 83%
[2]
  mouse weight as a percent of the starting weight: unchanged
B16-F10 melanoma cells; delphinidin 10 μg/ml
  B16-F10 proliferation: did not inhibit
HUVECs; 24 h
  change of VEGF-induced proliferation: -56%
  change of rate of basal proliferation: -52%
HUVECs; 48 h
  change of VEGF-induced proliferation: -85%
  change of rate of basal proliferation: -66%
HUVECs; 72 h
  change of VEGF-induced proliferation: -130%
  change of rate of basal proliferation: -70%
VEGFR2 [3]; delphinidin 10 μg/ml 3 h, then VEGF 10 ng/ml 30 min
  ability of VEGF in increasing VEGFR2 phosphorylation: completely prevented
VEGFR2 [3]; delphinidin 10 μg/ml 3 h, then VEGF 10 ng/ml 24 h
  ability of VEGF in increasing VEGFR2 expression: completely prevented
VEGFR2 [3]; delphinidin 10 μg/ml alone
  VEGFR2 expression: no effect
  VEGFR2 phosphorylation: no effect
VEGFR2 [4]; delphinidin 10 μg/ml 3 h, then VEGF 30 min
  VEGF-dependent VEGFR2 phosphorylation: inhibited
p38 MAP kinase
  basal p38 MAP kinase activation: did not affect
CREB; delphinidin 10 μg/ml + VEGF 10 ng/ml
  increase of CREB phosphorylation induced by VEGF: completely prevented
CREB; delphinidin 10 μg/ml alone
  CREB phosphorylation: no significant effect
ATF1; after stimulation by VEGF 10 ng/ml
  phosphorylation of ATF1: abolished
ATF1; control conditions
  phosphorylation of ATF1: abolished
PDE1; +CaM/Ca
  IC50: 15 ± 3 µM
  IC50 PDE1: 5 ± 1 µg/mL
PDE1; no regulator
  IC50: 33 ± 6 µM
  IC50 PDE1: 11 ± 2 µg/mL
PDE2; +5μM cGMP
  IC50: 19.8 µM and 18 µM
PDE2; no regulator
  IC50: 115 µM and 103 µM
PDE4
  IC50: 109 ± 12 µM
  IC50 PDE4: 37 ± 4 µg/mL
PDE5
  IC50: 49.5 µM and 44 µM
Human NSCLC cells
  tumor growth: significant inhibition

## O=c1cc(N2CCOCC2)oc2c(-c3ccccc3)cccc12 [LY-294002, 2-(4-Morpholinyl)-8-phenyl-4H-1-benzopyran-4-one, reference compound]
HUVECs; LY-294002 10 μM + delphinidin 10 μg/ml
  effect on the inhibitory effect of delphinidin on basal proliferation: completely blunted
HUVECs; LY-294002 10 μM, 72 h
  increase of basal proliferation: not at 72 h

## COc1cc2nccc(Oc3ccc(NC(=O)Nc4ccc(F)cc4F)c(F)c3)c2cc1OC [Ki8751, reference compound]
HUVECs; Ki8751 10 nM + VEGF, 24 and 48 h
  ability of VEGF to increase endothelial cell proliferation: completely abolished

## VEGF
B16-F10 melanoma cells; VEGF 10 ng/ml
  B16-F10 melanoma cell proliferation: not able increase
VEGFR2 [3]; VEGF 10 ng/ml 30 min
  VEGFR2 phosphorylation: increased
VEGFR2 [3]; VEGF 10 ng/ml 24 h
  VEGFR2 expression: increased
VEGFR2 [4]; VEGF 10 ng/ml
  VEGFR2 expression: did not modify
VEGFR2 [4]; VEGF 10 ng/ml 30 min
  VEGFR2 phosphorylation: increased
CREB; VEGF 10 ng/ml
  increase of CREB phosphorylation: +484%

## N#CC(=C(N)Sc1ccccc1N)C(C#N)=C(N)Sc1ccccc1N [U-0126, 1,4-diamino-2,3-dicyano-1,4-bis(2-aminophenylthio)-butadiene, reference compound]
HUVECs; U-0126 10 μM + VEGF 10 ng/ml, 72 h, n.s. vs control
  proliferation rate (% of control): 131%
HUVECs; U-0126 10 μM + delphinidin 10 μg/ml
  effect on the inhibitory effect of delphinidin on basal proliferation: reversed to some extent closer to basal level
